Values of other authors, collected in patent US20090011059A1, “Ginger Extract For Inhibiting Human Drug Transporters” (priority 2005, published 2009).

Conditions: not given

Q: With CC(=O)O[C@@]12CO[C@@H]1C[C@H](O)[C@@]1(C)C(=O)[C@H](O)C3=C(C)[C@@H](OC(=O)[C@H](O)[C@@H](NC(=O)OC(C)(C)C)c4ccccc4)C[C@@](O)([C@@H](OC(=O)c4ccccc4)[C@H]21)C3(C)C [Docetaxel] as the compound, how does the oral availability read?
A: 8%

Q: With CC[C@H](C)C(=O)O[C@H]1C[C@@H](C)C=C2C=C[C@H](C)[C@H](CC[C@@H]3C[C@@H](O)CC(=O)O3)[C@H]21 [Lovastatin] as the compound, how does the oral availability read?
A: 4%

Q: With CO[C@H]1C[C@@H]2CC[C@@H](C)[C@@](O)(O2)C(=O)C(=O)N2CCCC[C@H]2C(=O)O[C@H]([C@H](C)C[C@@H]2CC[C@@H](O)[C@H](OC)C2)CC(=O)[C@H](C)/C=C(\C)[C@@H](O)[C@@H](OC)C(=O)[C@H](C)C[C@H](C)/C=C/C=C/C=C/1C [Sirolimus] as the compound, how does the oral availability read?
A: 15%

Q: For C=CC[C@@H]1/C=C(\C)C[C@H](C)C[C@H](OC)[C@H]2O[C@@](O)(C(=O)C(=O)N3CCCC[C@H]3C(=O)O[C@H](/C(C)=C/[C@@H]3CC[C@@H](O)[C@H](OC)C3)[C@H](C)[C@@H](O)CC1=O)[C@H](C)C[C@@H]2OC [Tacrolimus], which oral availability is on record?
A: 16%

Q: Which oral availability does the source give for CC[C@@]1(O)C(=O)OCc2c1cc1n(c2=O)Cc2cc3c(CN(C)C)c(O)ccc3nc2-1 [Topotecan] here?
A: 42%

Conditions: in vivo

Q: Which “increase of the plasma exposure of cyclosporin A” value does the source give for vitamin E here?
A: roughly two-fold
